How the values were obtained:
[1] = Stability of the compound at room temperature after 19 days by NMR spectroscopy in presence of CDCl3; assay type: ADME; conditions: 456 h
[2] = Stability of the compound in DMSO-d6 at room temperature after 4 to 21 days by NMR spectroscopy in presence of CDCl3; assay type: ADME
[3] = Stability of the compound after 36 hrs by NMR spectroscopy; assay type: physicochemical
[4] = Stability of the compound after 48 hrs by NMR spectroscopy; assay type: physicochemical
[5] = molecular target: Oxoeicosanoid receptor 1 (Homo sapiens, UniProt Q8TDS5); assay: Agonist activity at OXE receptor (unknown origin) expressed in HEK293 cells co-expressing Galpha subunit G16 assessed as calcium mobilization using Oregon Green 488 BAPTA-1/AM by fluorescence assay; assay type: functional, cell-based
Oxoeicosanoid receptor 1, sequence (Q8TDS5 whole entry): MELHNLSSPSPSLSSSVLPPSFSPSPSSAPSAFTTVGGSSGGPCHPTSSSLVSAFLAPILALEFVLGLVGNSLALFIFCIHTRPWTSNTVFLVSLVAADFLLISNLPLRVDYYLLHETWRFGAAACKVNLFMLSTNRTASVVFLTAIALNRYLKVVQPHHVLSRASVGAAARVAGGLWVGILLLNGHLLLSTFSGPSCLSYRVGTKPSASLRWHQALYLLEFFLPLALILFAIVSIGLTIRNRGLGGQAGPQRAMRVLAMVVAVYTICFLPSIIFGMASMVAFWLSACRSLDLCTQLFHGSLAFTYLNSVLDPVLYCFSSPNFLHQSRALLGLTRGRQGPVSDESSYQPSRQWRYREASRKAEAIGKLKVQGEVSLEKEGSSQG

Stability [1]: Stable
Stability [2]: Stable
Stability [3]: Stable
Stability [4]: Unstable
EC50 [5]: 0.067 µM
SMILES: CCCCC/C=C\C/C=C\C/C=C\C=C\C(=O)CCCC(=O)O [5-OXO-ETE]
